Assay results published in US12595251B2, “Amidines and amidine analogs for the treatment of bacterial infections and potentiation antibiotics” (GEORGIA STATE UNIVERSITY RESEARCH FOUNDATION, INC., priority 2018, dated 2026).
“Also recorded” adds a separate entry of the source. Counter-ions that a name gives are not always drawn.

Experiments:
MRSA = experiment: Sensitization of MRSA toward antibiotics (OD600, 24 h); assay type: cell-based, Staphylococcus aureus; conditions: for Sensitization of MRSA towards rifampicin (qualitative): FIG. 22B, 24 h, 37 °C
Description: (§1) Bacteria was cultured with rifampicin at various concentrations in the presence or absence of Compound M-1 for 24 hours at 37° C. and bacterial growth density was determined by measuring OD600. The y-axis is growth density measured in percent. The x-axis is rifampicin concentration measured in micrograms per milliliter (***: p<0.01).
Compound M-1 (2.7 μg/ml) sensitizes MRSA towards existing antibiotics such as rifampicin (32-fold) (FIG. 22B) and trovafloxacin (16-fold). Rifampicin is the first line of defense against MRSA and many MRSA stains grow resistance to rifampicin through overexpression of efflux pump and other mechanisms. Combined with Compound M-1, rifampicin can be used more effectively against MRSA.

B. subtilis = B. subtilis viability with antibiotic in absence or presence of compound (OD600, 20 h); assay type: cell-based, Bacillus subtilis; conditions: for B. subtilis growth inhibition, compound in combination with erythromycin vs erythromycin alone: M-1 12.5 or 6 μM, A-2 6 or 12.5 μM, A-8
Description: Bacterial viability was then determined by measuring density using OD600. […] B. subtilis was also cultured with either novobiocin or tetracycline at varying concentrations either in the absence or presence of compound M-1 (12.5 μM) for 20 hours. Bacterial viability was subsequently determined by measuring density using OD600.
(§2) Bacterial viability was then determined by measuring density using OD600.

E. coli [1] = experiment: Resistance frequency analysis of E. coli on agar plates; assay type: cell-based, Escherichia coli; conditions: from 6*10^8 CFU E. coli; antibiotic at 2 to 6-fold MIC with 10 μg/ml Compound M-1, 48 h
Description: Resistance frequency is an important issue to consider when developing new antimicrobial agents. Using a standard resistance frequency analysis procedure, the resistance frequency was determined. […] Colonies that survived the antibiotic and Compound M-1 combination were considered resistant mutant strains toward this combinational treatment. […] Compound M-1 lowers the resistance frequency of bacteria toward antibiotics. The component in the combination responsible for the resistance was next determined. The 16 resistant colonies were challenged with another combination-rifampicin and Compound M-1.

E. coli [2] = experiment: E. coli viability with antibiotic in absence or presence of compound (OD600, 20 h); assay type: cell-based, Escherichia coli; conditions: for E. coli growth inhibition, compound in combination with erythromycin: M-1 25 μM or 12 μM, A-1 12 μM, A-8, 20 h
Description: as §2

wild-type E. coli = experiment: Sensitization of wild-type E. coli toward antibiotics (MIC of antibiotic with/without sensitizer); assay type: cell-based, Escherichia coli; conditions: for Sensitization fold: compound at 5 μg/ml, strain and antibiotic not stated in Table 8
Description: Bacteria were cultured with the antibiotic at various concentrations in the presence or absence of bacterial sensitizer for 24 hours at 37° C. Bacterial growth density was determined by measuring OD600 (absorbance measured at a wavelength of 600 nm). […]
The formula for calculating FIC is shown below: […]

wild type B. subtilis [3] = experiment: Sensitization of B. subtilis toward antibiotics (MIC, OD600, 24 h); assay type: cell-based, Bacillus subtilis
Description: as §1, with “FIG. 22A is a bar graph showing that Compound M-1 sensitizes B. subtilis towards rifampicin as described in Example 13. Bacteria” for “Bacteria”
Compound M-1 can sensitize Gram-positive bacteria such as B. subtilis towards traditional antibiotics. […] The sensitization fold is 32-fold for Compound M-1 and the FIC index is 0.14.

wild type B. subtilis [4] = experiment: as above; assay type: cell-based, Bacillus subtilis; conditions: Compound M-1 5.5 μg/ml
E. coli [5] = experiment: O-methyl novobiocin concentration inside E. coli (HPLC of lysate); assay type: cell-based, Escherichia coli; conditions: 50 μg/ml O-methyl novobiocin, 24 h, with 10 μg/ml Compound M-1 vs without
Description: The antibiotic concentration inside E. coli with and without Compound M-1 was measured. The inactivated form of antibiotic was used because the active antibiotic would kill the bacteria or inhibit bacterial growth and this would lead to results that cannot be compared against other control experiments. O-Methyl novobiocin is an inactivated form of novobiocin that was used for this experiment.
E. coli was cultured with 50 μg/ml O-methyl novobiocin for 24 hours at 37° C. with continuous shaking in the absence and presence of 10 μg/ml Compound M-1. E. coli was then centrifuged and the supernatant was removed. To the precipitation that contained E. coli, PBS and novobiocin were added as internal standard and the resulting mixture was sonicated to lyse the cell. The mixture was diluted with acetonitrile (3×) and centrifuged. The supernatant, which contained O-methyl novobiocin, was analyzed by HPLC. The O-methyl novobiocin concentrations inside the bacteria increased 9.1-fold in E. coli in the presence of 10 μg/ml Compound M-1 (FIG. 19). Such results correlate well with the fact that 10 μg/ml Compound M-1 can sensitize E. coli towards novobiocin 8-fold.

Klebsiella pneumoniae = experiment: Sensitization of Klebsiella pneumoniae to clarithromycin; assay type: cell-based; conditions: FIG. 16
Excerpt: The x-axis is clarithromycin measured in μg/ml and the y-axis is growth measured in percent.

E. coli and MRSA = experiment: Relative ratio of E. coli and MRSA under trovafloxacin with/without Compound A-8; assay type: cell-based, Escherichia coli; Staphylococcus aureus
Excerpt: FIG. 23A is a comparison of the relative ratio of E. coli and MRSA treated with the antibiotic trovafloxacin in the absence (pie chart on the left) and in the presence (pie chart on the right) of Compound A-8 as described in Example 14. In the absence of Compound A-8, trovafloxacin preferred to inhibit E. coli and the bacterial population was 78% MRSA. However, Compound A-8 sensitizes trovafloxacin to MRSA.
(§3) As a proof of concept, the relative ratio of E. coli and MRSA (FIG. 23A) or B. subtilis and MRSA (FIG. 23 B) was measured with and without Compound A-8. […] However, when trovafloxacin (8 ng/ml) is supplied with 1.5 μg/ml of Compound A-8, MRSA inhibition was achieved and E. coli was the dominant species (89% of the bacteria population).

B. subtilis and MRSA = experiment: Relative ratio of B. subtilis and MRSA under trovafloxacin with/without Compound A-8; assay type: cell-based, Bacillus subtilis; Staphylococcus aureus
Description: FIG. 23B is a comparison of the relative ratio of B. sub and MRSA treated with the antibiotic trovafloxacin in the absence (pie chart on the left) and in the presence (pie chart on the right) of Compound A-8 as described in Example 14. […] However, Compound A-8 sensitizes trovafloxacin to MRSA.
as §3

[6] = Lipid A binding assay using Dansyl-PMBN displacement on E. coli; parameters: species or system Escherichia coli; conditions: 10 μM Dansyl-PMBN on E. coli, gradual addition of compound
Description: FIG. 21 is a graph describing the in vivo lipid A binding assay using Dansyl-PMBN as described in Example 11. Dansyl-PMBN (10 μM) was added to E. coli (OD600 measurement of about 0.5) and the fluorescent intensity at this time was recorded as F0. Sensitizers (Compound C, Compound E-20, and Polymyxin B) were added gradually and the fluorescent intensity was recorded 30 seconds later to determine the fluorescent intensity as a percent. The x-axis is concentration of the sensitizers measured in μM and the y-axis is the fluorescent intensity measured as a percent.
Lipid A is a key component of the outer membrane of Gram-negative bacteria and is responsible for maintaining its integrity of the outer membrane. The binding affinity of the compounds of the present invention to Lipid A was measured following literature procedures using a fluorescent conjugate of a polymyxin-B derivative (Dansyl-PMBN). Dansyl-PMBN binds to the lipid A part of LPS and leads to increased fluorescent intensity. […] When 10 μM of Dansyl-PMBN was added to E. coli stock (OD600 measurement around 0.5), the fluorescent intensity increased 10-fold.

E. coli outer membrane = E. coli outer membrane integrity, lysozyme lysis assay; assay type: cell-based, Escherichia coli; conditions: lysozyme 50 μg/ml, Compound C 25 μg/ml, 10 min, OD600; dihydrochloride
Description: FIG. 20 is a graph of the E. coli outer membrane integrity measurement using the lysosomal lysis assay as described in Example 10. E. coli (OD600 measurement of about 0.5) was treated with Compound C with or without lysozyme for 10 minutes at room temperature. E. coli with impaired outer membrane caused by Compound C lead to decreased OD600 measurements. The x-axis is labeled with the compound and the y-axis is E. coli growth density determined by measuring OD600, Polymyxin B and pentamidine were used as positive controls.
The mechanism of action was also elucidated using a well-recognized lysosome assay that allows for assessment of membrane permeability. Specifically, lysozyme (about 14 KDa) breaks down bacterial cell wall and leads to bacterial lysis. However, lysozyme cannot penetrate intact Gram-negative bacterial outer membrane. With impaired Gram-negative bacterial membrane, lysozyme is able to diffuse across the disrupted membrane and enzymatically cleave peptidoglycan, which leads to bacterial lysis. […] In the absence of the sensitizer, no cell lysis was observed.

[7] = trovafloxacin in presence of Compound A-8

## Cc1cc(COc2ccc(C(=N)N)cc2)cc(COc2ccc(C(=N)N)cc2)c1 [Compound M-1, 4,4′-(((5-Methyl-1,3-phenylene)bis(methylene))bis(oxy))dibenzimidamide Hydrochloride]
MRSA; Compound M-1 2.7 μg/ml
  Sensitization fold, MRSA towards rifampicin: 32 fold
  Sensitization fold, MRSA towards trovafloxacin: 16 fold
MRSA
  Sensitization of MRSA towards rifampicin (qualitative): sensitize MRSA towards rifampicin
B. subtilis; Bacillus subtilis, 12.5 μM, 20 h, read-out: B. subtilis viability, compound alone
  viability at 12.5 µM: 80%
B. subtilis; Compound M-1 12.5 μM, 20 h
  B. subtilis growth inhibition, compound in combination with novobiocin or tetracycline: significant bacterial growth inhibition
B. subtilis; LTA 1 mg/mL
  Effect of lipoteichoic acid (LTA) on growth inhibition by erythromycin + M-1 in B. subtilis: could be inhibited by co-culturing with lipoteichoic acid (LTA)
B. subtilis; 20 h
  B. subtilis growth inhibition, compound in combination with erythromycin vs erythromycin alone: significant bacterial growth inhibition
E. coli [1]
  Colonies resistant to antibiotic-Compound M-1 combinations: 16 colonies
E. coli [2]; 2 mg/mL LPS or 21 mM Mg2+, M-1 12 μM
  Effect of LPS or Mg2+ on sensitization of E. coli by M-1 with erythromycin: inhibited
E. coli [2]
  E. coli growth inhibition, compound in combination with erythromycin: significant bacterial growth inhibition
wild-type E. coli; 10 μg/ml Compound M-1
  Sensitization of E. coli towards novobiocin: 8 fold
wild-type E. coli
  Sensitization fold: 8
Wild type B. subtilis [3]; 5.5 μg/ml Compound M-1
  FIC index, rifampicin on B. subtilis: 0.11
  Sensitization fold, B. subtilis towards rifampicin: 256 fold
Wild type B. subtilis [3]; 5.5 μg/ml of Compound M-1 by itself
  Growth density compared with no-treatment group: 80%
Wild type B. subtilis [3]; Bacillus subtilis, read-out: MIC on wild type B. subtilis
  MIC: 50 µg/mL
Wild type B. subtilis [4]
  FIC index, erythromycin on B. subtilis: 0.14
  Sensitization fold, B. subtilis towards clarithromycin: 32 fold
  Sensitization fold, B. subtilis towards clindamycin: 16 fold
  Sensitization fold, B. subtilis towards entrapenem: 4 fold
  Sensitization fold, B. subtilis towards erythromycin: 32 fold
  Sensitization fold, B. subtilis towards methicillin: 4 fold
  Sensitization fold, B. subtilis towards novobiocin: 4 fold
  Sensitization fold, B. subtilis towards trovafloxacin: 8 fold
E. coli [5]
  Increase of O-methyl novobiocin concentration inside E. coli: 9.1 fold

## Cc1cc(CCc2ccc(C(=N)N)cc2)cc(CCc2ccc(C(=N)N)cc2)c1 [Compound A-8, 4,4′-((5-Methyl-1,3-phenylene)bis(ethane-2,1-diyl))dibenzimidamide Dihydrochloride]
MRSA
  Concentration required to sensitize MRSA towards rifampicin 32-fold: 1.5 µg/mL
  Sensitization of MRSA towards rifampicin (qualitative): sensitize MRSA towards rifampicin
B. subtilis; 20 h
  B. subtilis growth inhibition, compound in combination with erythromycin vs erythromycin alone: significant bacterial growth inhibition
Klebsiella pneumoniae
  Sensitization of Klebsiella pneumoniae to clarithromycin: sensitization of Klebsiella pneumoniae to clarithromycin
E. coli [2]
  E. coli growth inhibition, compound in combination with erythromycin: growth inhibition was also observed
wild-type E. coli
  Concentration required to sensitize wild type E. coli towards rifampicin 32-fold: 7 µg/mL
  Sensitization fold: 16
Wild type B. subtilis [3]
  Concentration required to sensitize B. subtilis towards rifampicin 32-fold: 3 µg/mL
E. coli and MRSA; trovafloxacin (8 ng/ml) with 1.5 μg/ml of Compound A-8
  E. coli share of the bacteria population (E. coli + MRSA): 89%
E. coli and MRSA; [7]
  MRSA share of the bacteria population (E. coli + MRSA): 11%
B. subtilis and MRSA; 8 ng/ml trovafloxacin and 1.5 μg/ml of Compound A-8
  B. subtilis share of the bacteria population (B. subtilis + MRSA): 99.5%
B. subtilis and MRSA; [7]
  MRSA share of the bacteria population (B. subtilis + MRSA): 0.5%

## N=C(N)c1ccc(COc2cc(OCc3ccc(C(=N)N)cc3)cc(C(F)(F)F)c2)cc1 [Compound C, 1,3-Bis {(4-amidino)-benzyloxy}-5-trifluoromethylbenzene dihydrochloride]
wild-type E. coli
  Minimal concentration achieving 10-fold sensitization of E. coli toward erythromycin: 2.5 μg/ml
wild-type E. coli; Compound C 2 μg/ml
  Sensitization fold, rifampicin on E. coli: 8
wild-type E. coli; Compound C 4 μg/ml
  Sensitization fold, rifampicin on E. coli: 128
wild-type E. coli; Compound C 6 μg/ml
  Sensitization fold, rifampicin on E. coli: 1024
wild-type E. coli; Compound C 8 μg/ml
  Sensitization fold, rifampicin on E. coli: 2,048
wild-type E. coli; with Compound C 2 μg/ml
  MIC of rifampicin on E. coli: 1.25 µg/mL
wild-type E. coli; with Compound C 4 μg/ml
  MIC of rifampicin on E. coli: 0.08 µg/mL
wild-type E. coli; with Compound C 6 μg/ml
  MIC of rifampicin on E. coli: 0.01 µg/mL
wild-type E. coli; with Compound C 8 μg/ml
  MIC of rifampicin on E. coli: 0.005 µg/mL
wild-type E. coli; with Compound C 10 μg/ml
  MIC of rifampicin on E. coli: 0.0006 µg/mL
[6]
  Binding to lipid A (decrease of Dansyl-PMBN fluorescent intensity): bind to lipid A
E. coli outer membrane
  Lysozyme-induced lysis of E. coli (membrane integrity): quick bacterial lysis; also recorded: more potent than pentamidine
